Type in all cases: cell-based, mouse
One assay deals with MICU1. The assay is described as follows: Western blot of mtCU components in WT MEFs. The note with it: 12 hours after treatment. As for the experimental part:
(§1) Myofibroblast differentiation was induced using 10 ng ml^−1 recombinant mouse Transforming growth factor-β (TGFβ) or 10 μM Angiotensin II (AngII,). In all experiments, FBS was reduced to 1% 24 hours prior to and during treatment with TGFβ or AngII.
(§2) All protein samples were lysed by homogenization in RIPA buffer supplemented with phosphatase inhibitors and protease inhibitors. Samples were sonicated briefly and centrifuged at 5,000 g for 10 minutes. The supernatant was collected and used for further analysis. Protein amount was quantified using the Bradford Protein Assay and equal amounts of protein (10-50 μg) were run by electrophoresis on polyacrylamide Tris-glycine SDS gels. Gels were transferred to PVDF and membranes were blocked for 1 hour in Blocking Buffer followed by incubation with primary antibody overnight at 4° C. Membranes were washed in TBS-T 3 times for 5 minutes each and then incubated with secondary antibody for 1 hour at room temperature. After incubation with fluorescent secondary antibodies, membranes were washed in TB S-T 3 times for 5 minutes each and then imaged on a Licor Odyssey system. The following antibodies were used in the study: MCU (1:1,000), MCUb (1:250,), MICU1 (1:500,), MCUR1 (1:500), EMRE (1:250, Santa Cruz, sc-86337), VDAC (1:1,000), PDHE1α phospho 5293 (1:1,000), PDHE1α (1:1,000,), IDH3A (1:500), α-tubulin (1:1,000), ETC respiratory chain complexes (1:2,500), H3K4me3 (1:2,000), H3K9me3 (1:2,000), H3K27me3 (1:2,000), H3K4me2 (1:2,000), H3K9me2 (1:2,000), H3K27me2 (1:2,000), H3 (1:2000); and secondary antibodies: anti-mouse (1:12,000), anti-rabbit, (1:12,000), and anti-goat (1:12,000).

For assay [1], the system named is MEFs. Put plainly: ECAR and OCR measurements (Seahorse XF96) in MEFs. As for the experimental part:
as §1
A Seahorse Bioscience XF96 extracellular flux analyzer was employed to measure extracellular acidification rates (ECAR) and oxygen consumption rates (OCR). ECAR was measured using the Glycolytic Stress Test Kit and OCR was measured using the Miro Stress Test Kit. To evaluate ECAR, 20,000 MEFs/well were plated in XF media pH 7.4 without supplementation. […] To evaluate OCR, 20,000 MEFs/well were plated in XF media pH 7.4 supplemented with 10 mM glucose and 1 mM sodium pyruvate. […] After each experiment, protein concentration was measured and wells were normalized using the Wave software.

A further assay relates to PDH E1α. Put plainly: Western blot of phosphorylated PDH. The conditions noted are these: MEFs, 0, 24, 48, or 72 h. As for the experimental part:
as §2
A general note: A western blot detects proteins with antibodies after separation by electrophoresis.

In a further assay the test system is NFATc1. Put plainly: NFAT translocation assay. The conditions noted are these: control cells (Ad-βgal), 24 hours. As for the experimental part:
MEFs were plated on coated 35-mm dishes and infected with Ad-NFATc1-GFP for 24 hours at which time live-cell images were taken followed by treatment with 10 ng m1^1 TGFP or 10 μM AngII for 24 hours. For live-cell imaging, cells were placed in a 37° C. heated chamber on a Carl Zeiss Axio Observer Z1 fluorescent microscope. Prior to imaging, MEFs were incubated with Hoechst 33342 to demarcate cell nuclei. Images were acquired in the green channel (490ex/525em) and blue channel (350ex/460em). NFAT localization was quantified as the nuclear/cytoplasmic ratio of GFP fluorescence. More than 50 cells per dish were analyzed.

For assay [2], the system named is MEFs. Put plainly: α-SMA immunofluorescence (myofibroblast differentiation). The conditions noted are these: wildtype MEFs, 48 hours. As for the experimental part:
For experiments that required adenoviral gene transfer, MEFs were incubated in adenovirus for 24 hours at which time the media was changed. To knockout Mat, MEFs were transduced with adenovirus encoding Cre-recombinase (Ad-Cre) or βgalactosidase (Ad-(βgal) for 24 h and experiments were performed 5 days post-infection in order to ensure sufficient time for protein turnover. For experiments using adenovirus encoding Glyco-High, Glyco-Low, or mito-R-GECO1, cells were incubated for an additional 24 hours prior to the experiment. The following adenoviruses have previously been described: NFAT-cl-GFP, Glyco-High, Glyco-Low, mito-R-GECO1 (De Windt et al., 2000; Kurland et al., 1992; Salabei et al., 2016; Zhao et al., 2011). Glyco-High and Glyco-Low adenoviruses were made and purified by Vector Labs using cDNA for a rat liver PFKFB1 isoform of phosphofructokinase 2 (PFK2)/ fructose-2,6-bisphosphatase (FBP2). […]
MEFs were seeded on coated 35-mm dishes. […] Images were acquired in the red (590ex/617em) and blue (350ex/461em) channels. α-SMA expression was assessed by quantifying fluorescence intensity and the percentage α-SMA positive cells. More than 50 cells per dish were analyzed.

For “Angiotensin II (DRVYIHPF; Angiotensin-2; UniProt P01019 25-32, looked up) [AngII, pro-fibrotic agonist]”, the MICU1 expression entry with MICU1 was “similarly large increase”. The basal respiration result with MEFs [1] was “slight decrease”. Besides, in the assay on MEFs [1] (at peak (TGFβ 48 hours, AngII ~12 hours)), the “increase in glycolysis from baseline” value is given as 45%. In addition, in the assay on PDH E1α, the “ratio of p-PDH E1α/PDH” value is “increased”. For the same molecule, the “nuclear translocation of NFATc1” value with NFATc1 is “induced nuclear translocation of NFATc1”.

On to `COC(=O)CCC(=O)C(=O)OC` [DM-αKG, dimethyl-αKG], for which the “percentage of α-SMA positive cells” value in the assay with MEFs [2] is “increased the percentage of α-SMA positive cells to the same extent as 48 hours of TGFβ treatment”.

(Values after patent US20210330744A1, “Methods and Compositions for Treating Neurodegeneration and Fibrosis” (Temple University-Of The Commonwealth System of Higher …, priority 2017, published 2021).)
